The test system of data set [1] is human spermatozoa. Kind of data set: Acrosome assay, protocol 1 (3h incubation with compound, no agonist; flow cytometry, PNA). In kind it is cell-based. Conditions: assay 'Acrosome', incubation_time 3h. The procedure: The acrosome assays utilize a high-throughput flow cytometer (S1 Fig) to score for compounds inducing the acrosome reaction, using peanut agglutinin conjugated to a fluorescent dye to label the outer acrosomal membrane. We have developed two different screening protocols, named ‘acrosome 1’ and ‘acrosome 2’ (S1 Fig). […] This addition allowed measurement of inhibition of acrosome reaction (Fig 2B).
(§1) In both experimental protocols, 20 μL of pooled cells (at 1 M/mL concentration) were capacitated for 3 h in presence of compounds at 37°C and 5% CO2. In protocol a, cells were then stained with PNA-Alexa647 (ThermoFisher, 1 mg/mL, final dilution 1:1000) and Hoechst dye for 30 min at 37°C and 5% CO2, followed by 10 min fixation at RT by adding 20 μL of 4% paraformaldehyde (Sigma) in PBS. In mode b, a cocktail of progesterone, prostaglandin A and NH4Cl was added to all compound wells and incubated for an additional 1 h at 37°C and 5% CO2 to induce acrosome reaction. This was followed by fixation and staining protocol as for mode a. In both protocols fixatives and stains were removed and cells were resuspended in PBS, using a 405 platewasher. Plates were then measured on a Novocyte Advanteon high-throughput flow cytometer. Gating of data has been performed using the flow cytometer software to export counts of gated populations. The Acrosome 1 protocol using 3h incubation with compounds was run in 7 separate donor pools. The Acrosome 2 protocol using 3h incubation with compound followed by 1h stimulation of acrosome reaction was run in 5 separate donor pools.
(§2) For cell painting imaging data, plates of images were imported into OMERO [70]. Cell segmentation and feature extraction were performed using CellProfiler 3 [71] and using instructions from to normalize data. Timelapse data of motility assays was processed as previously described. Acrosome flow cytometry data was processed using NovoCyte Express (PerkinElmer), to gate out background debris, select for single cells and calculate percentage values of acrosome positive events. Sperm viability flow cytometry data was processed using iQue Forecyt (Satorius) to gate out background debris, select for single cells and calculate percentage values of propidium iodide positive events. For all sperm functional assays, data was normalized to DMSO control wells. Each plate had 16 DMSO wells. A median value of all 16 wells was used to calculated percentage change (pct_ch = ((value / DMSO_median) -1) * 100). For sperm viability we calculated fold-change (fc = 1 − (value / DMSO_median)). For each compound we calculated a p-value using a Welch’s t-test implemented in scipy (scipy.stats.ttest_ind) comparing a compounds effect to DMSO controls.
(In flow cytometry, cells or beads pass a laser one at a time.)

Another data set relates to spermatozoa. More on the design: method as in per compound as listed in column References of Table 1. The note with it: summaries of reported effects; ref per compound as listed in Table 1; cited from earlier work.
The test system of data set [2] is human spermatozoa. Kind of data set: Motility assay (non-capacitating conditions). It is filed as cell-based. The note with it: cluster in Fig 3A heatmap, 30 μM. The method, then:
(§3) To compare the effects of STB compounds on specific sperm functions (e.g. motility, acrosome reaction, viability), we screened them in multiple phenotypic functional assays described below. Each sperm function assay has been repeated in multiple donor pools (see Materials and methods), where each pool consists of cells donated from at least 3 different donors to address donor to donor variability. Each compound has been tested at two concentrations, 10 and 30 μM, and normalized to vehicle controls (DMSO, see Materials and methods). We have modified our assays from the previously published workflow by increasing incubation time and introducing conditions that support capacitation, which is a sperm maturation process required for fertilization. These changes expand the range of targets that we can explore in our assays. Our live-sperm-based high-throughput motility assays use an automated microscope to record short timelapse movies. These assays can be run in different protocols (S1 Fig). […] In this protocol, cells are incubated with compounds for 10 min prior to the first motility read-out. A second and third motility read-out were performed after 3h and 6h incubation. The second protocol, denoted ‘capacitation assay’, utilises conditions that support capacitation (S1 Fig). In this protocol, cells are kept in conditions supporting capacitation for 30 minutes prior to 30 minutes incubation with compound, followed by motility read-out. Both protocols allow sperm motility to be measured (0.5 sec time-lapse movies allow tracking of cells and calculation of sperm kinematics). In addition, the capacitation assay also scores hyperactivation (i.e. distinct movement patterns concomitant with capacitation which are crucial for fertilization) (Fig 2A).
Cells were rested for 1 h post density gradient centrifugation. 10 μL assay buffer was dispensed into assay ready plates, plates were put onto a shaker instrument for 30 seconds using 1,000 rpm, followed by a short pulse centrifugation. Plates were incubated for 15–30 mins at 37°C prior to addition of 10 μL of pooled cells (at 1 M/mL concentration). Plates were then incubated in a Yokogawa CV7000 microscope set at 37°C for 10 min prior to imaging. Imaging a 384-well plate requires ≤ 20 min using the following settings: 2 positions per well, 0.5 sec timelapse movies (3x binning; 11 ms exposure time, 22 ms interval time, […]). A second and a third timepoint was recorded after 3 h, and 6 h incubation at 37°C. Data has been processed as described in [8]. Assay results are from 5 separate donor pools.
as §2

Data set [3] has as its system human spermatozoa. Kind of data set: Authors' own unpublished screening campaigns ('This study'). It is filed as cell-based. The source says:
Because there is so little known about the molecular mechanisms that control sperm motility, we are unable to develop hypotheses of potential targets when new hits are identified in the sperm motility assay. However, it is now well-established that features derived from images in phenotypic assays, when compared to phenotypes measured on reference compounds, can accurately stratify genetic or chemical perturbations in phenotypic screens. […] Compound annotations are included in the dataset derived from the STB and indicate that Enzymes/Kinases, Receptors, Channels and Transporters are the most represented target of the STB compound classes (Fig 1D).
List of compounds included in Sperm Toolbox. Published Phenotypes are summaries of reported effects on sperm function related to other processes (e.g. spermatogenesis, liquefaction, or ejaculation).

The subject of data set [4] is human spermatozoa. As to the kind of experiment: Capacitation assay (motility and hyperactivation under capacitating conditions). In kind it is cell-based. Conditions: cluster in Fig 3A; 30 min capacitation then 30 min with compound. The procedure: as §3
Cells were capacitated for 30 min at 37°C and 5% CO2. 10 μL assay buffer was dispensed into assay ready plates, plates were put onto a shaker instrument for 30 seconds using 1,000 rpm, followed by a short pulse centrifugation. Plates were incubated for 15–30 mins at 37°C and 5% CO2 prior to addition of 10 μL of pooled cells (at 1 M/mL concentration). This was followed by a 20 min compound incubation step at 37°C and 5% CO2. Plates were then incubated in our CV7000 microscope set at 37°C and 5% CO2 for 10 min prior to imaging. […]
For cell painting imaging data, plates of images were imported into OMERO [70]. […] A median value of all 16 wells was used to calculated percentage change (pct_ch = ((value / DMSO_median) -1) * 100). For sperm viability we calculated fold-change (fc = 1 − (value / DMSO_median)). For each compound we calculated a p-value using a Welch’s t-test implemented in scipy (scipy.stats.ttest_ind) comparing a compounds effect to DMSO controls.

For the next data set, the system named is HepG2. As to the kind of experiment: HepG2 cytotoxicity assay (resazurin based). It is filed as cell-based. Conditions: 70h incubation. (In general: The colour change of resazurin is a common sign of viable cells or microbes.)
For the next data set, the system named is HeLa. Kind of data set: HeLa cell painting cytotoxicity assay. In kind it is cell-based. Conditions: 24h compound incubation.
Data set [5] has as its system human spermatozoa. As to the kind of experiment: Acrosome assay, protocol 2 (3h with compound, then 1h agonist cocktail). The note with it: cluster in Fig 3A; 3h with compound then agonist mix. It is filed as cell-based. The procedure: The acrosome assays utilize a high-throughput flow cytometer (S1 Fig) to score for compounds inducing the acrosome reaction, using peanut agglutinin conjugated to a fluorescent dye to label the outer acrosomal membrane. We have developed two different screening protocols, named ‘acrosome 1’ and ‘acrosome 2’ (S1 Fig). Both protocols are capable of measuring induction of the acrosome reaction upon compound incubation. However, in the acrosome 2 assay, a mixture of physiological agonists of the acrosome reaction is used after cells have been incubated with compounds for 3h under conditions that support capacitation. This addition allowed measurement of inhibition of acrosome reaction (Fig 2B).
as §1
as §2, with “Sperm viability flow cytometry data was processed using iQue Forecyt (Satorius) to gate out background debris, select for single cells and calculate percentage values of propidium iodide positive events. For all sperm functional assays, data was normalized to DMSO control wells. Each plate had 16 DMSO wells.” left out

For data set [6], the system named is human spermatozoa. As to the kind of experiment: Sperm viability assay (propidium iodide, flow cytometry). It is filed as cell-based. Conditions: 3h with compound. The method, then: In this assay, cells are incubated for 3h with compound in non-capacitating media, prior to viability assessment.
Cells were incubated with compounds for a total of 3h at 37°C. 20 min prior, propidium iodide was added (1.5 mM solution, Sigma, final dilution 1:2000). Plates were analysed using a Satorius iQue Screener with settings to allow for a sampling time of ≤30 min per 384-well plate. Gating of data has been performed using the flow cytometer software to export counts of gated populations. This assay was tested in 5 separate donor pools.
as §2

Setting [7] is: screening_concentration_M 9.99e-6.
The mark [8] stands for this setting: screening_concentration_M 2.991e-5.

Where a name gives a salt, the structure may show the parent alone.

Protocol for HeLa: The HeLa-based assay uses the cell painting assay [11], while the HepG2 assay utilizes a resazurin based viability read-out [64].
Cell were incubated with compounds for 24h.
• 10 μL of MitoTracker (Life Technologies, M22426, 1 mM stock in DMSO as recommended by the vendor) is added to 50 μL of media (1:2000 final dilution) • Phalloidin-Alexa594 (Life Technologies, A12381, 66 μM stock in methanol as recommended by the vendor, 1:500 final dilution) • WGA-Alexa594 (Life Technologies, W11262, 5 mg/mL stock, 1:250 final dilution) was used • DAPI (5 mg/mL stock; 1:1000 final dilution) was used to stain DNA • 20 μL of staining solution was used • PBS was used for washing steps
For cell painting imaging data, plates of images were imported into OMERO [70]. Cell segmentation and feature extraction were performed using CellProfiler 3 [71] and using instructions from [11] to normalize data.

On to `N=C(N)Nc1nc2ccccc2[nH]1` [2-Guanidinobenzimidazole], for which the “ch (percentage change vs DMSO median), Acrosome” value is on record as 0.2236% with human spermatozoa [1] (setting [7]) and 0.07571% in the data set on human spermatozoa [1] (setting [8]). The “Published Phenotype” value with spermatozoa was “Reduces sperm motility”.

With `CNc1ccc2oc(C[C@H]3O[C@@]4(CC[C@H]3C)O[C@H]([C@H](C)C(=O)c3ccc[nH]3)[C@H](C)C[C@H]4C)nc2c1C(=O)O` [A23187], the “sperm motility and/or acrosome reacted cells (unsupervised clustering)” value in the data set with human spermatozoa [2] is reported as “significant reduction of sperm motility and/or increased amounts of acrosome reacted cells”. In the data set on spermatozoa, the “Published Phenotype” value is listed as “Induces acrosome reaction”.

As to `NC(=O)Nc1cc(-c2cccc(F)c2)sc1C(=O)N[C@H]1CCCNC1` [AZD 7762 hydrochloride], the “Phenotype observed in own screening campaigns (Published Phenotype, References 'This study')” value (“Phenotype observed” below) with human spermatozoa [3] is “Reduces sperm motility”.

With `CCCCC(CC)CNC(=N)NC(=N)NCCCCCCNC(=N)NC(=N)NCC(CC)CCCC` (stereo not drawn) [Alexidine dihydrochloride], in the data set with human spermatozoa [2], the “sperm motility and/or acrosome reacted cells (unsupervised clustering)” value is “significant reduction of sperm motility and/or increased amounts of acrosome reacted cells”. The “Published Phenotype” value in the data set on spermatozoa is reported as “Reduces sperm motility”.

On to `CCOc1ccc(-c2nc(-c3cccc4c3CCC4NCCO)no2)cc1OCC` (stereo not drawn) [CYM 5442 hydrchloride], for which the “Phenotype observed” value in the data set on human spermatozoa [3] was “Reduces sperm motility; induces acrosome reaction”.

As to `Nc1nc(Cl)nc2c1ncn2[C@@H]1O[C@H](CO)[C@@H](O)[C@@H]1F` [Clofarabine], in the data set with human spermatozoa [4], the hyperactive motility entry is on record as “significantly increased”. Further, the “general cytotoxicity (HepG2)” value with HepG2 is on record as “do not show effects”. Further, the “general cytotoxicity (HeLa)” value with HeLa is given as “do not show effects”. In addition, the “Published Phenotype” value in the data set on spermatozoa is given as “Enhances sperm motility”. Also, in the data set with human spermatozoa [5], the “acrosome reaction (acrosome reacted cells)” value is listed as “significantly increased”. Moreover, the “effects on sperm viability” value with human spermatozoa [6] is “do not show effects”.

As to `Clc1ccc(C(OCCN2CCCCC2)c2ccccc2)cc1` (stereo not drawn) [Cloperastine hydrochloride], the “Phenotype observed” value in the data set on human spermatozoa [3] is reported as “Reduces sperm motility”.

With `CCS(=O)(=O)Nc1ccc2c(c1)/C(=C(/Nc1ccc(CN3CCCCC3)cc1)c1ccccc1)C(=O)N2` [Hesperadin hydrochloride], in the data set with human spermatozoa [3], the “Phenotype observed” value is “Reduces sperm motility”.

Regarding `C[C@]1(O)C[C@@H](c2nc(-c3ccc4ccc(-c5ccccc5)nc4c3)c3c(N)nccn32)C1` [Linsitinib], in the data set on human spermatozoa [4], the hyperactive motility result was “significantly increased”. For the same molecule, the “general cytotoxicity (HepG2)” value in the data set on HepG2 is recorded as “do not show effects”. Also, the “general cytotoxicity (HeLa)” value in the data set on HeLa is recorded as “do not show effects”. For the same molecule, in the data set on spermatozoa, the “Published Phenotype” value is recorded as “enhances sperm motility”. For the same molecule, the “acrosome reaction (acrosome reacted cells)” value in the data set with human spermatozoa [5] was “significantly increased”. Further, the “effects on sperm viability” value in the data set with human spermatozoa [6] is listed as “do not show effects”.

For `Cc1ccc(S(=O)(=O)c2ccc([N+](=O)[O-])o2)cc1` [NSC 697923], the “Phenotype observed” value with human spermatozoa [3] is on record as “Reduces sperm motility”.

In the case of `[O-][S+](c1ccccc1)c1ccc2nnnn2n1` (stereo not drawn) [Ro 106–9920], the “Phenotype observed” value with human spermatozoa [3] is given as “Reduces sperm motility”.

For the molecule `CCCCCCCCOc1ccc(-c2noc([C@@H]3CCCN3C(=N)N)n2)cc1C(F)(F)F` [SLM 6031434 hydrochloride], the “Phenotype observed” value in the data set on human spermatozoa [3] is “Induces acrosome reaction”.

On to `COc1cc(C)c2c(Oc3cccc(C(F)(F)F)c3)c(OC)cc(NC(C)CCCN)c2n1` (stereo not drawn) [Tafenoquine], for which the “sperm motility and/or acrosome reacted cells (unsupervised clustering)” value with human spermatozoa [2] is listed as “significant reduction of sperm motility and/or increased amounts of acrosome reacted cells”. Also, the “Phenotype observed” value with human spermatozoa [3] is given as “Reduces sperm motility; induces acrosome reaction”.

With `O=C(N1CCCCC1)N1CCCCC1Cc1ccccc1` (stereo not drawn) [compound 183], the “ch (percentage change vs DMSO median), Acrosome” value in the data set on human spermatozoa [1] (setting [7]) is 0.955%; in the data set with human spermatozoa [1] (setting [8]), 1.376%. Further, the “Published Phenotype” value in the data set with spermatozoa is “Reduces acrosome reaction”.

For NVP-AEW541, in the data set with spermatozoa, the “Published Phenotype” value is recorded as “Inhibition of hyperactivity”.

B1: Urinastatin (protein, UniProt P02760 206-352, looked up)
Inter-alpha-trypsin inhibitor …: AVLPQEEEGSGGGQLVTEVTKKEDSCQLGYSAGPCMGMTSRYFYNGTSMACETFQYGGCMGNGNNFVTEKECLQTCRTVAACNLPIVRGPCRAFIQLWAFDAVKGKCVLFPYGGCQGNGNKFYSEKECREYCGVPGDGDEELLRFSN
modifications: Inter-alpha-trypsin inhibitor light chain
notes: interferes with liquefaction
For B1, the “Published Phenotype” value in the data set on spermatozoa is “Interferes with liquefaction; reduces sperm motility”.

Source of the values: paper PMC10878532, “Sperm Toolbox—A selection of small molecules to study human spermatozoa” (PLOS ONE, 2024).
